Measured values: patent US9169315B2, “Heparin cofactor II fragments with anti-inflammatory and anti-coagulant activity” (XIMMUNE AB, priority 2009, dated 2015)
No end group written: not given here.

Columns and labels:
[1] = system: intrinsic pathway of coagulation; experiment: Activated partial thromboplastin time (aPTT); conditions: normal human plasma
Procedure: All clotting times were measured using an Amelung coagulometer. Activated partial thromboplastin time (aPTT) was measured by incubating the peptides diluted in sterile water at the indicated concentrations, with 100 μL citrated human plasma for 1 minute followed by the addition of 100 μL aPTT reagent (aPTT Automate, Diagnostica Stago) for 60 seconds at 37° C. Clotting was initiated by the addition of 100 μL of a 25-mM CaCl2 solution. In the prothombrin time assay (PT), clotting was initiated by the addition of 100 μL Thrombomax with calcium (PT reagent; Sigma-Aldrich). For measuring the thrombin clotting time (TCT), clotting was initiated by the addition of 100 μL Accuclot thrombin time reagent (TCT reagent; Sigma-Aldrich).
All clotting times were analyzed using a coagulometer (Amelung, Lemgo, Germany). The prothrombin time (PT) and the Thrombin clotting time (TCT) were measured as followed: Hundred microliter of fresh human citrate plasma together with indicated concentrations of NLF20 were pre-warmed for 60 sec at 37° C. before clot formation was initiated by adding 100 μl a clotting reagent. (PT-thromboplastin reagent (Trinity Biotech), TCT: Thrombin reagent (Technoclone)). To record the activated partial thromboplastin time (aPTT), 100 μl of a kaolin-containing solution (Technoclone) was add to the plasma-peptide mix and incubated for 200 sec before clot formation was initiated by adding 100 μl of 30 mM fresh CaCl2 solution.

[2] = Liposome leakage assay (carboxyfluorescein release); conditions: for CF release from liposomes: 10 mM Tris-buffer
Excerpt: The liposomes investigated were anionic (DOPE/DOPG 75/25 mol/mol). DOPG (1,2-Dioleoyl-sn-Glycero-3-Phosphoglycerol, monosodium salt), and DOPE (1,2-dioleoyl-sn-Glycero-3-phoshoetanolamine) were all from Avanti Polar Lipids (Alabaster, USA) and of >99% purity. Due to the long, symmetric and unsaturated acyl chains of these phospholipids, several methodological advantages are reached. In particular, membrane cohesion is good, which facilitates very stable, unilamellar, and largely defect-free liposomes (observed from cryo-TEM) and well defined supported lipid bilayers (observed by ellipsometry and AFM), allowing detailed values on leakage and adsorption density to be obtained. The lipid mixtures were dissolved in chloroform, after which solvent was removed by evaporation under vacuum overnight. Subsequently, 10 mM Tris buffer, pH 7.4, was added together with 0.1 M carboxyfluorescein (CF) (Sigma, St. Louis, USA). After hydration, the lipid mixture was subjected to eight freeze-thaw cycles consisting of freezing in liquid nitrogen and heating to 60° C. Unilamellar liposomes of about Ø140 nm were generated by multiple extrusions through polycarbonate filters (pore size 100 nm) mounted in a LipoFast miniextruder (Avestin, Ottawa, Canada) at 22° C. Untrapped CF was removed by two subsequent gel filtrations (Sephadex G-50, GE Healthcare, Uppsala, Sweden) at 22° C., with Tris buffer as eluent. CF release from the liposomes was determined by monitoring the emitted fluorescence at 520 nm from a liposome dispersion ([…] in 10 mM Tris, pH 7.4). An absolute leakage scale was obtained by disrupting the liposomes at the end of each experiment through addition of 0.8 mM Triton X-100 (Sigma-Aldrich, St. Louis, USA). A SPEX-fluorolog 1650 0.22-m double spectrometer (SPEX Industries, Edison, USA) was used for the liposome leakage assay in Tris buffer in the absence and presence of liposomes under conditions described above. Measurements were performed in triplicate at 37° C.
The liposomes investigated were either zwitterionic (DOPC/cholesterol 60/40 mol/mol or DOPC without cholesterol) or anionic (DOPE/DOPG 75/25 mol/mol). DOPG (1,2-Dioleoyl-sn-Glycero-3-Phosphoglycerol, monosodium salt), DOPC (1,2-dioleoyl-sn-Glycero-3-phoshocholine), and DOPE (1,2-dioleoyl-sn-Glycero-3-phoshoetanolamine) were all from Avanti Polar Lipids (Alabaster, USA) and of >99% purity, while cholesterol (>99% purity), was from Sigma-Aldrich (St. Louis, USA). Due to the long, symmetric and unsaturated acyl chains of these phospholipids, several methodological advantages are reached. […] CF release from the liposomes was determined by monitoring the emitted fluorescence at 520 nm from a liposome dispersion (10 mM lipid in 10 mM Tris, pH 7.4). […]

[3] = system: S. pyogenes; format: cell-based
Procedure: MIC assay was carried out by a microtiter broth dilution method as previously described in the NCSLA guidelines (Wiegand, I., Hilpert, K. & Hancock, R. E. Agar and broth dilution methods to determine the minimal inhibitory concentration (MIC) of antimicrobial substances. Nat Protoc 3, 163-175 (2008)). In brief, fresh overnight colonies were suspended to a turbidity of 0.5 units and further diluted in Mueller-Hinton broth (Becton Dickinson). For determination of MIC, peptides were dissolved in water at concentration 10 times higher than the required range by serial dilutions from a stock solution. Ten μl of each concentration was added to each corresponding well of a 96-well microtiter plate (polypropylene, Costar Corp.) and 90 μl of bacteria (1×10^5) in MH medium added. The plate was incubated at 37° C. for 16-18 h. MIC was taken as the lowest concentration where no visual growth of bacteria was detected.

[4] = system: erythrocytes; format: cell-based, human

Sequence | Activated partial thromboplastin time (aPTT) [1] | Time within which ~80% of the maximal CF release occurred [2] | CF release from liposomes [2] | MIC [3] | Hemolytic activity [4]
KYEITTIHNLFRKLTHRLFRR [KYE21] | only minor blocking of the aPTT | 5 to 10 min | caused CF release |  | 
KYEITTIHNLFRKLTHRLFRRNFGYTLR [KYE28] | impair the intrinsic pathway of coagulation |  |  | 10 µM | significant hemolytic activities at higher doses (30-60 μM)
NLFRKLTHRLFRRNFGYTLR [NLF20] | impaired the intrinsic pathway of coagulation | 5 to 10 min | caused CF release | 2.5 µM | hemolytic activities at higher doses (30-60 μM)
